Assay results: patent US20110195404A1, “SYSTEMS AND METHODS FOR DETERMINING CALCIUM LEVELS” (priority 2010, published 2011)
“And” between values parts separate entries of the source, which are not always exact repeats. Identical values can stand only once.

Columns and labels:
α-amylase = biological target: T1, α-amylase (Homo sapiens, UniProt P0DUB6); experiment: α-Amylase inhibition saliva screening (2-chloro-p-nitrophenol-maltotriose substrate, absorbance 405 nm); assay type: biochemical; details: 37° C.; for α-amylase assay reading (absorbance at 405 nm), single replicate: test compound prepared at 5,000 ppm
T1 sequence (P0DUB6 16-511): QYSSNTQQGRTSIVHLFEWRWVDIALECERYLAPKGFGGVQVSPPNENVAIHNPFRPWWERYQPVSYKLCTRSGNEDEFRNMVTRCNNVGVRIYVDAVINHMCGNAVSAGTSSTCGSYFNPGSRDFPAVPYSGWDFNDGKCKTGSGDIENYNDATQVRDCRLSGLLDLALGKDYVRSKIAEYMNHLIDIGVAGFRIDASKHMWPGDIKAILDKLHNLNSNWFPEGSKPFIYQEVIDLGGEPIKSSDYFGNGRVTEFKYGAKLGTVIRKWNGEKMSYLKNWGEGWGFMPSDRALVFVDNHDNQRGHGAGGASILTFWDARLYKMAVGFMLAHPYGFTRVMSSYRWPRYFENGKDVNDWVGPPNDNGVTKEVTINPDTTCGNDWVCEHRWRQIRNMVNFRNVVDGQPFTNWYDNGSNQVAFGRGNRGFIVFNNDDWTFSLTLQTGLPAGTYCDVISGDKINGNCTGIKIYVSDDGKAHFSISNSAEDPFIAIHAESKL
Text: Enzymatic activity of α-amylase on the substrate yields 2-chloro-p-nitrophenol, which can be measured spectrophotometrically at 405 nm. The amount of α-amylase activity present in the experimental sample is directly proportional to the increase in absorbance at 405 nm.

Lysozyme = biological target: T2, Lysozyme (Homo sapiens, UniProt P61626); experiment: Lysozyme inhibition saliva screening (fluorescein-labeled Micrococcus lysodeikticus); assay type: biochemical
T2 sequence (P61626 19-148): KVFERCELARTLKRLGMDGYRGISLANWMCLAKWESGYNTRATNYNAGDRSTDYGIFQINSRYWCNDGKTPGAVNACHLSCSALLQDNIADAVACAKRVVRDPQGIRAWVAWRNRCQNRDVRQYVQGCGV
Text: The assay measures lysozyme activity on Micrococcus lysodeikticus cell walls, which are labeled to such a degree that the fluorescence is quenched. Lysozyme activity can relieve this quenching; yielding increased fluorescence that is proportional to lysozyme activity.

Compound: Aluminum sulfate hydrate [CDI-34]
- α-amylase assay reading, Ave (α-amylase; 0 min, 5,000 ppm): 0.40
- α-amylase assay reading (absorbance at 405 nm), single replicate (α-amylase; 0 min, sulfate hydrate): 0.40 (2×) and 0.36 and 0.45
- α-amylase assay reading, Ave (α-amylase; 5 min, 5,000 ppm): 0.50
- α-amylase assay reading (absorbance at 405 nm), single replicate (α-amylase; 5 min, sulfate hydrate): 0.49 and 0.50 (2×) and 0.52
- α-amylase assay reading, Ave (α-amylase; 15 min, 5,000 ppm): 0.56
- α-amylase assay reading (absorbance at 405 nm), single replicate (α-amylase; 15 min, sulfate hydrate): 0.53 and 0.61 and 0.54 and 0.56

Compound: Aluminum potassium sulfate dodecahydrate [CDI-42]
- α-amylase assay reading, Ave (α-amylase; 0 min, 5,000 ppm): 0.92
- α-amylase assay reading (absorbance at 405 nm), single replicate (α-amylase; 0 min): 0.80 and 0.90 and 0.84
- α-amylase assay reading (absorbance at 405 nm), single replicate (α-amylase; 5 min): 1.80

Compound: CC(=O)O [CDI-047, Acetic acid]
- inhibition of Lysozyme (Lysozyme; 100% saliva samples (data not shown)): inhibit Lysozyme
- Lysozyme Inhibitor Activity (Lysozyme; dilute (3.5%) saliva, FIG. 12): Lysozyme Inhibitor Activity
